{
  "source": "patent US9358272B2",
  "about": "“Multicomponent compositions and their uses” (THE ADMINISTRATORS OF THE TULANE EDUCATIONAL FUND, priority 2011, dated 2016)",
  "key": {"[1]": {"system": "cervical cancer Hela cells", "experiment": "VPA-induced cell morphological change, Hela cells", "type": "cell-based, Human", "conditions": "VPA at 8 mM in FIG. 25", "text": "(§1) The cancer cells were inspected and photographed under an inverted light microscope at 10× magnification."}, "[2]": {"system": "ovarian cancer NCI/ADR-RES cells", "experiment": "VPA-induced cell morphological change, NCI/ADR-RES cells", "type": "cell-based", "text": "as §1"}, "[3]": {"system": "gene expression in MTC TT cells", "experiment": "RT-PCR / real-time PCR gene expression, TT cells", "type": "cell-based", "experimental": "RT-PCR, Real-Time PCR RT-PCR was performed on total RNA that was isolated from tumor cells as described in the protocol (Invitrogen, Carlsbad, Calif.). All primers for SST, BN, and PACAP receptors were obtained from previously published reports, such as Sun et al. 2011. The PCR amplification is regularly 35 cycles, with more or less cycles due to the difference in RNA abundance of these investigated genes. Primers used for real-time PCR analyses were identical to those described above. Real-time PCR assays were performed as described in Sun et al 2011. β-actin was used as the internal control and results were calculated by applying 2^−ΔΔCT methods as described above."}, "[4]": {"system": "ovarian cancer OVCAR8 cells", "experiment": "Cell proliferation assay (MTT), OVCAR8 cells", "type": "cell-based, Human", "conditions": "single agents and combinations", "experimental": "Cell Proliferation Assay (MTT)\nThe cell proliferation assay was performed as described previously in Sun et al., Bioorg Med Chem Lett, 2004, Vol. 14, pp. 2041-2046. Briefly, 50 μl aliquots of medium with different concentrations of compounds were added to 96-well plates. All compound concentrations were tested in triplicate. Another 50 μl of the cell stock (1×10^5 cells/ml of media) was dispensed into each test well and the plates were incubated at 37° C. in a CO2 incubator for 3 days. Following the incubation period, 15 μl of the dye solution was added to each well and the plates were then incubated at 37° C. for 4 hours, followed by the addition of 100 μl per well of the solubilization solution. The plates were incubated at 37° C. until the contents in each well became a uniform-colored solution. The absorbance was measured and recorded at 570 nm by a Victor Plate Reader.\nThe cell proliferation assay (Promega, Madison, Wis.) was performed as described in Sun et al., Bioorg Med Chem Lett, 2004, Vol. 14, pp. 2041-2046. The absorbance was measured and recorded at 570 nm by a Victor Plate Reader (PerkinElmer, Boston, Mass.)."}},
  "note": "Entries after “also recorded” stand apart in the source; their conditions may differ.",
  "data": [
    {"smiles": "CCCC(CCC)C(=O)O", "note": "[VPA, valproic acid]", "values": [
      {"measurement": "cell morphological change, in words", "setting": "[1]", "result": "could induce morphological change"},
      {"measurement": "cell morphological change, in words", "setting": "[2]", "result": "no effect"},
      {"measurement": "effect on expression of Notch receptors (RT-PCR), in words", "setting": "[3]; VPA at serial doses, FIG. 52", "result": "significantly increase Notch1, Notch2, and Notch3, with a decrease of Notch4 expression"},
      {"measurement": "effect on expression of SST, BN and PACAP receptors (RT-PCR), in words", "setting": "[3]; VPA treatment, FIG. 55", "result": "SSTR2 (2.2-fold, confirmed by real-time PCR), BRS3, NMBR, and VPAC2 increased and SSTR3 and VPAC1 decreased, with no obvious change in the others"},
      {"measurement": "increase of SSTR2 expression", "setting": "[3]; VPA treatment, confirmed by real-time PCR", "result": 2.2, "unit": "fold"},
      {"measurement": "cell growth suppression (MTT), in words", "setting": "[4]", "result": "displayed its anti-proliferative ability; also recorded: displays its anti-proliferation ability"}
    ]}
  ]
}
